Columns and labels:
[1] = Rate of dissolution of CBD according to Ph. Eur. 2.9.3 for oral tablets; type: physicochemical; details: 1 wt. % SDS in water, pH 7, 36-41° C.
Description: The rate of dissolution of CBD from the compressed tablets described in Example 2 was tested according to European Pharmacopeia (Ph. Eur. 2.9.3) for oral tablets. The rate of dissolution of pure CBD (20 mg) was determined using the same method.
The dissolution medium consisted of a solution of 1 wt. % SDS in water. The pH of the medium had been adjusted to 7 with diluted HCl. During the experiments, the temperature of the dissolution media was maintained between 36 and 41° C. under stirring. After dropping the tablet in the dissolution medium, samples were taken at various time intervals with a disposable syringe. The samples were filtered immediately over a syringe filter into a HPLC vial and analyzed by HPLC.

schizophrenic patient = details: cited from earlier work
[2] = A. J. Poortman, H. Huizer, Forensic Science International (1999); cited from earlier work

C=C(C)[C@@H]1CCC(C)=C[C@H]1c1c(O)cc(CCCCC)cc1O [CBD, cannabidiol]
% (w/w) of CBD dissolved ([1]; 1 min): 2.6 % (w/w) | % (w/w) of CBD dissolved ([1]; 4 min): 9.2 % (w/w) | % (w/w) of CBD dissolved ([1]; 8 min): 18.6 % (w/w) | % (w/w) of CBD dissolved ([1]; 15 min): 27.4 % (w/w) | % (w/w) of CBD dissolved ([1]; 30 min): 35.2 % (w/w) | % (w/w) of CBD dissolved ([1]; 45 min): 42.4 % (w/w) | % (w/w) of CBD dissolved ([1]; 60 min): 45.5 % (w/w) | symptom course (schizophrenic patient; patient with schizophrenia, dose doubled every 5 days, at 1280 mg/day): trend for symptom improvement | clinical course during CBD treatment (schizophrenic patient; schizophrenic patient, CBD dissolved in oil up to 1500 mg/day for 4 weeks): significant improvement | stability of the drug [2]: unstable

Reference: patent publication US10245237B2, “Compressed tablet containing cannabidiol, method for its manufacture and use of such tablet in oral treatment of psychosis or anxiety disorders” (Echo Pharmaceuticals B.V., priority 2013, dated 2019)
